Data: patent publication US20070275007A1, “Carbohydrate Antigen-Nanoparticle Conjugates and Uses Thereof as Antimetastatic Agents in Treating Cancer” (The Government of the United States of America, represented …, priority 2003, published 2007)

Experiment: Solubility in water and organic solvents
Type: physicochemical

- solubility in chloroform (chloroform): moderately soluble
- solubility in methanol (methanol (methanol and other organic solvents)): moderately soluble
- solubility in water (water): soluble
SMILES: CC(=O)NC1[C@H](OCCCCCS)OC(CO)[C@H](O)[C@@H]1O[C@@H]1OC(CO)[C@H](O)[C@H](O)C1O (stereo partly drawn) [126E-23]
